Test results: ChEMBL document CHEMBL5385916, “Discovery of a novel series of pyridone amides as NaV1.8 inhibitors” (Bioorg Med Chem Lett, 2024)
The source made the active and inactive calls. The calls are words filed in the database; no cut-off is given here.

system: Mus musculus; assay: Analgesic activity in cold pain hypersensitivity mouse model at 100 microg/kg, ip measured for 8 days; type: functional, organism-based; details: dose 100.0 µg/kg, time 8.0 day

SMILES | Activity
O=C(Nc1cc[nH]c(=O)c1)c1ccc(C(F)(F)F)cc1N1CCC(C(F)(F)F)CC1 | Active

molecular target: T1, Sodium channel protein type 10 subunit alpha (Homo sapiens, UniProt Q9Y5Y9); assay: Inhibition of Nav1.8 (unknown origin) at 10 uM under resting state by whole-cell patch clamp analysis relative to control; details: not given
Target sequence in this assay (Q9Y5Y9 whole entry, looked up): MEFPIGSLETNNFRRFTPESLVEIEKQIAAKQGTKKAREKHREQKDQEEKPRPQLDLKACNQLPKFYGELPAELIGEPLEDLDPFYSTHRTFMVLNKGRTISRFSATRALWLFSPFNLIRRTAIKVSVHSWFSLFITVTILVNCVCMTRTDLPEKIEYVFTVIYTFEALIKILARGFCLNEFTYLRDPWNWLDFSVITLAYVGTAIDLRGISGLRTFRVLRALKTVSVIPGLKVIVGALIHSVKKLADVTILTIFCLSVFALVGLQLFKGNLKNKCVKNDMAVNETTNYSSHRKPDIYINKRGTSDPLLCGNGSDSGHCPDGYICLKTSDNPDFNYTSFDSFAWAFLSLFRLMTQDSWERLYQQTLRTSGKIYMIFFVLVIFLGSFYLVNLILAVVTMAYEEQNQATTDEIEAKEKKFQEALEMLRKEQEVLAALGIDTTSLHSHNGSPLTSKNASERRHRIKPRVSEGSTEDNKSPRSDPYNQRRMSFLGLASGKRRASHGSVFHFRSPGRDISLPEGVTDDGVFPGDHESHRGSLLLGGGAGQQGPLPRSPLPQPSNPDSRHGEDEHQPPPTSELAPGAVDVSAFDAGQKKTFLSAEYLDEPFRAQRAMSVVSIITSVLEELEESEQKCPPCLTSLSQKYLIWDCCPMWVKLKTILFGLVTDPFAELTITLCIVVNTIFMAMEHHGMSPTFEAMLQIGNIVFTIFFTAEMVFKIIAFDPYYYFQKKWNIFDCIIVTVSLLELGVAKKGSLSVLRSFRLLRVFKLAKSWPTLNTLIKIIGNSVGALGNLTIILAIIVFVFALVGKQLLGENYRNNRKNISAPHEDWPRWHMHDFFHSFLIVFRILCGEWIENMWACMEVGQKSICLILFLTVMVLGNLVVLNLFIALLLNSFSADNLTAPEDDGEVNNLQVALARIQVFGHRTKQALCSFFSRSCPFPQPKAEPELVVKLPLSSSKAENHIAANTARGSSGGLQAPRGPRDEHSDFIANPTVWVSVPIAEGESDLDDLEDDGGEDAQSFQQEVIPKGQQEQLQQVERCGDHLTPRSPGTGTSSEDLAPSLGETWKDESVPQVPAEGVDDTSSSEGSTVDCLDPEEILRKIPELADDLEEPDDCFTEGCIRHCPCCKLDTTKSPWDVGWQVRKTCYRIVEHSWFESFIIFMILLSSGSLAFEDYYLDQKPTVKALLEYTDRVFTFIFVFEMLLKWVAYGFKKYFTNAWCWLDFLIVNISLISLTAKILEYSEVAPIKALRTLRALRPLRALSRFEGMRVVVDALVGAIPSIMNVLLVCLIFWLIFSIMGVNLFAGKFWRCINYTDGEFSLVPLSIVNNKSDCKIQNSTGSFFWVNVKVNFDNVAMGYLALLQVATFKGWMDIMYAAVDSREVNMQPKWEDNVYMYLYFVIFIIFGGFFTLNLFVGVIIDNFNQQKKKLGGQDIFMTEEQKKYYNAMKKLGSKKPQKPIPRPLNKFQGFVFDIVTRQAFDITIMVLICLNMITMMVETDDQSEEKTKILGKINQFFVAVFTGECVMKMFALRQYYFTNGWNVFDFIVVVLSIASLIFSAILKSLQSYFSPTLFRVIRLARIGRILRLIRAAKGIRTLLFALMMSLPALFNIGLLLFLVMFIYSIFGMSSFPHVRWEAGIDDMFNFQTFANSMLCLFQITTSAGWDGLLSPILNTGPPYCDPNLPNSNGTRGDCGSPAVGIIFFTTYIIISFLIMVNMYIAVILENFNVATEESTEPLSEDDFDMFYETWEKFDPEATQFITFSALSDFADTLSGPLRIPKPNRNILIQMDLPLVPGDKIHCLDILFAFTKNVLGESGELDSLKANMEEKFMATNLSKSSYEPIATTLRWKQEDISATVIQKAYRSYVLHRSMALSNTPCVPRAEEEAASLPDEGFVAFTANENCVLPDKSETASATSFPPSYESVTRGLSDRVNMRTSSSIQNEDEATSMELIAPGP

SMILES | inhibition
Cc1cc(F)ccc1Oc1cc(C(F)(F)F)ccc1C(=O)Nc1ccc2cc[nH]c2c1 | -0.26%
O=C(Nc1cc[nH]c(=O)c1)c1ccc(C(F)(F)F)cc1Sc1ccc(F)cc1 | 87.5%
COc1cc(NC(=O)c2ncc(C(F)(F)F)cc2Oc2ccc(F)cc2C)ccn1 | 82.5%
O=C(Nc1cc[nH]c(=O)c1)c1ccc(C(F)(F)F)cc1N1CCC(C(F)(F)F)CC1 | 93.4%

system: Mus musculus; assay: Analgesic activity in CFA-induced inflammatory pain mouse model assessed as paw withdrawal response to von frey stimuli at 100 microg/kg, ip measured for 5 hrs; type: functional, organism-based; details: dose 100.0 µg/kg

SMILES | Activity
O=C(Nc1cc[nH]c(=O)c1)c1ccc(C(F)(F)F)cc1Sc1ccc(F)cc1 | Active
COc1cc(NC(=O)c2ncc(C(F)(F)F)cc2Oc2ccc(F)cc2C)ccn1 | Active
O=C(Nc1cc[nH]c(=O)c1)c1ccc(C(F)(F)F)cc1N1CCC(C(F)(F)F)CC1 | Active

system: Mus musculus; assay: Analgesic activity in CFA-induced inflammatory pain mouse model assessed as paw withdrawal response to von frey stimuli at 100 microg/kg, po administered for 8 days and measured upto 7 hrs; type: functional, organism-based; details: dose 100.0 µg/kg, time <= 199.0 hrs

SMILES | Activity
O=C(Nc1cc[nH]c(=O)c1)c1ccc(C(F)(F)F)cc1N1CCC(C(F)(F)F)CC1 | Active

system: Mus musculus; assay: Analgesic activity in chronic constriction injury mouse model assessed as fold increase in AUC at 100 microg/kg, ip administered for 8 days relative to model group; type: functional; details: dose 100 µg/kg, time 8 day

SMILES | fold change (FC)
O=C(Nc1cc[nH]c(=O)c1)c1ccc(C(F)(F)F)cc1N1CCC(C(F)(F)F)CC1 | 2

system: not listed separately; assay: Toxicity in mouse assessed as adverse effects at 100 microg/kg, ip administered for 8 days and measured upto 9 hrs; type: organism-based; details: in vivo, 0.1 mg/kg, 201 h, dose 100 µg/kg

SMILES | Activity
O=C(Nc1cc[nH]c(=O)c1)c1ccc(C(F)(F)F)cc1N1CCC(C(F)(F)F)CC1 | Non-Toxic

molecular target: T1, Sodium channel protein type 10 subunit alpha; assay: Inhibition of Nav1.8 (unknown origin) at 10 uM under half inaction state by whole-cell patch clamp analysis relative to control; details: not given
Target sequence in this assay (Q9Y5Y9 whole entry, looked up): as above

SMILES | inhibition
Cc1cc(F)ccc1Oc1cc(C(F)(F)F)ccc1C(=O)Nc1ccc2cc[nH]c2c1 | 1.55%
O=C(Nc1cc[nH]c(=O)c1)c1ccc(C(F)(F)F)cc1Sc1ccc(F)cc1 | 88.8%
COc1cc(NC(=O)c2ncc(C(F)(F)F)cc2Oc2ccc(F)cc2C)ccn1 | 84.5%
O=C(Nc1cc[nH]c(=O)c1)c1ccc(C(F)(F)F)cc1N1CCC(C(F)(F)F)CC1 | 92.2%

system: not listed separately; assay: Selectivity ratio of binding affinity to Nav1.8 (unknown origin) expressed in HEK293T cells assessed as retention time to binding affinity to Nav1.5 (unknown origin) expressed in HEK293T cells assessed as retention time; type: cell-based; details: not given

SMILES | Selectivity ratio
Cc1cc(F)ccc1Oc1cc(C(F)(F)F)ccc1C(=O)Nc1ccncc1 | 10
Cc1cc(F)ccc1Oc1cc(C(F)(F)F)ccc1C(=O)Nc1ccc2cc[nH]c2c1 | 1
O=C(Nc1cc[nH]c(=O)c1)c1ccc(C(F)(F)F)cc1OC1CC=CC1 | 0.61
COc1cc(NC(=O)c2ccc(C(F)(F)F)cc2Oc2ccc(F)cc2C)ccn1 | 0.34
Cc1cc(F)ccc1Oc1cc(C(F)(F)F)ccc1C(=O)Nc1ccccc1 | 0.79
O=C(Nc1cc[nH]c(=O)c1)c1ccc(C(F)(F)F)cc1Sc1ccc(F)cc1 | 0.57
Cc1cc(F)ccc1Oc1cc(C(F)(F)F)ccc1C(=O)Nc1cc[nH]c(=O)c1 | 0.57
CN1CCN(c2cc(C(F)(F)F)ccc2C(=O)Nc2cc[nH]c(=O)c2)CC1 | 41.4
COc1cc(NC(=O)c2ncc(C(F)(F)F)cc2Oc2ccc(F)cc2C)ccn1 | 1.79
COc1cccc(NC(=O)c2ccc(C(F)(F)F)cc2Oc2ccc(F)cc2C)c1 | 0.63
O=C(Nc1cc[nH]c(=O)c1)c1ccc(C(F)(F)F)cc1Oc1ccc(F)nc1 | 0.92
O=C(Nc1cc[nH]c(=O)c1)c1ccc(C(F)(F)F)cc1OC1CCC(F)(F)CC1 | 0.66
Cc1cc(F)ccc1Oc1cc(C(F)(F)F)ccc1C(=O)NCc1ccccc1 | 0.94
COc1cc(NC(=O)c2ccc([N+](=O)[O-])cc2Oc2ccc(F)cc2C)ccn1 | 0.62
O=C(Nc1cc[nH]c(=O)c1)c1ccc(C(F)(F)F)cc1N1CCC(C(F)(F)F)CC1 | 0.9
Cc1cc(F)ccc1Oc1cc(C(F)(F)F)ccc1C(=O)Nc1cccc(O)c1 | 5.14
Cc1cc(F)ccc1Oc1cc([N+](=O)[O-])ccc1C(=O)Nc1cc[nH]c(=O)c1 | 0.52
O=C(Nc1cc[nH]c(=O)c1)c1ccc(C(F)(F)F)cc1Oc1ccccc1 | 0.55
O=C(Nc1cc[nH]c(=O)c1)c1ccc(C(F)(F)F)cc1Oc1ccncc1 | 0.94
Cc1cc(F)ccc1Oc1cc(C(F)(F)F)ccc1C(=O)NCc1cc[nH]c(=O)c1 | 0.66

system: Mus musculus; assay: Analgesic activity in chronic constriction injury mouse model assessed as paw withdrawal response to von frey stimuli at 100 microg/kg, ip administered for 8 days and measured upto 9 hrs; type: functional, organism-based; details: dose 100.0 µg/kg, time <= 201.0 hrs

SMILES | Activity
O=C(Nc1cc[nH]c(=O)c1)c1ccc(C(F)(F)F)cc1N1CCC(C(F)(F)F)CC1 | Active

molecular target: Sodium channel protein type 5 subunit alpha (Homo sapiens, UniProt Q14524); assay: Binding affinity to Nav1.5 (unknown origin) expressed in HEK293T cells assessed as retention time by cell membrane chromatography analysis; type: cell membranes; details: not given
Sequence (Q14524 whole entry): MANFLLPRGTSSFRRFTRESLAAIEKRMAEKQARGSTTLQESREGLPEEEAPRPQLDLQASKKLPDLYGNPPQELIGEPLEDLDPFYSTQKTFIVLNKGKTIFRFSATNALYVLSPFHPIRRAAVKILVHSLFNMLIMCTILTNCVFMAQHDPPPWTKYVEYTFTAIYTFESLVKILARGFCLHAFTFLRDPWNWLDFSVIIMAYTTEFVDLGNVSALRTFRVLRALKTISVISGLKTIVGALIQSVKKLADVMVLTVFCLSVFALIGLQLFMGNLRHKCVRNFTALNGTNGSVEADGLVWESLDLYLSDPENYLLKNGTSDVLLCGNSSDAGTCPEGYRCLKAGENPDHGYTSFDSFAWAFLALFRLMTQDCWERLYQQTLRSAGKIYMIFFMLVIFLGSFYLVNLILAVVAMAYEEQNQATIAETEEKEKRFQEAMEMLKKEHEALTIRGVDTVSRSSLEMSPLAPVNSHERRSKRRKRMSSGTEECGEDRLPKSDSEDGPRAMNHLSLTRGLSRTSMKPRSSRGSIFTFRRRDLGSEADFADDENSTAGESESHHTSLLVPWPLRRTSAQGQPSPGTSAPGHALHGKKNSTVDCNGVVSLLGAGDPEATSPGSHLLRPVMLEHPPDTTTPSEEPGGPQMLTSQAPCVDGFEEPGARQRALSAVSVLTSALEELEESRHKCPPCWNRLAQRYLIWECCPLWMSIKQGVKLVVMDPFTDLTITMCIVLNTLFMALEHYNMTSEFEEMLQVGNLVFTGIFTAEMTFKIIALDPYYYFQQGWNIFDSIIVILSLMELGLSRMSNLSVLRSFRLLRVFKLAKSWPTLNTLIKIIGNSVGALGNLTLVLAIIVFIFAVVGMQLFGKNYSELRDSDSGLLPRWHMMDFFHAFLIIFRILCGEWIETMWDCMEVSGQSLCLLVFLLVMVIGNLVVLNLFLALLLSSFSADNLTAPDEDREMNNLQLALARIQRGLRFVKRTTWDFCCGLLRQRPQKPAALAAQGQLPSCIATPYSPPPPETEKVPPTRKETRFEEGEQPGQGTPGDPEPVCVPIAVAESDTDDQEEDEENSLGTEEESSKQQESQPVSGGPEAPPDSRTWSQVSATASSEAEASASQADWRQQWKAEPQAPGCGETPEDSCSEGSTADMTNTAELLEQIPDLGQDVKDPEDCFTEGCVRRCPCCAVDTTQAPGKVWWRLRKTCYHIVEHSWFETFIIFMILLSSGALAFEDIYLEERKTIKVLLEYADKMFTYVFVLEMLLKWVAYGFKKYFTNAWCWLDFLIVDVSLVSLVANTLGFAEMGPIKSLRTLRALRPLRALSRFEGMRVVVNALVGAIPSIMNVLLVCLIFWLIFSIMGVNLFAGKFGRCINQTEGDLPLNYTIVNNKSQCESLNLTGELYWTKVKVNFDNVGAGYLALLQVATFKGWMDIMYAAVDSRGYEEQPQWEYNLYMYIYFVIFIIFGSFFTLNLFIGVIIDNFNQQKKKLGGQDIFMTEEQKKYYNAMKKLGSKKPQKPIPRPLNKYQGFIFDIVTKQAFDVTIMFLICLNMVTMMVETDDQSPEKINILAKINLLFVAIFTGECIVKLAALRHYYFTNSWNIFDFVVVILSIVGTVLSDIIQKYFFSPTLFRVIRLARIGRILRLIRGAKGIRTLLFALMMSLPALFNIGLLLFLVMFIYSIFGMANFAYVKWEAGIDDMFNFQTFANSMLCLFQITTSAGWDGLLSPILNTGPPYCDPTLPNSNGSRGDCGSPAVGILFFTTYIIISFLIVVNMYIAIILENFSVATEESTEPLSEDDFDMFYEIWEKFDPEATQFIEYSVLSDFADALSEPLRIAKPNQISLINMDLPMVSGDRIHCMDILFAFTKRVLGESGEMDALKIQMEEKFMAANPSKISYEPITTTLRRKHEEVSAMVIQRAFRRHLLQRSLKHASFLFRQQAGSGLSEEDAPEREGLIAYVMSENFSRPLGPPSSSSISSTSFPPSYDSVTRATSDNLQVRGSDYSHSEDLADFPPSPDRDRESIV

SMILES | Retention_time
Cc1cc(F)ccc1Oc1cc(C(F)(F)F)ccc1C(=O)Nc1ccncc1 | 3 min
Cc1cc(F)ccc1Oc1cc(C(F)(F)F)ccc1C(=O)Nc1ccc2cc[nH]c2c1 | > 60 min
O=C(Nc1cc[nH]c(=O)c1)c1ccc(C(F)(F)F)cc1OC1CC=CC1 | 16.4 min
COc1cc(NC(=O)c2ccc(C(F)(F)F)cc2Oc2ccc(F)cc2C)ccn1 | 17.8 min
Cc1cc(F)ccc1Oc1cc(C(F)(F)F)ccc1C(=O)Nc1ccccc1 | 7.3 min
O=C(Nc1cc[nH]c(=O)c1)c1ccc(C(F)(F)F)cc1Sc1ccc(F)cc1 | 16.1 min
Cc1cc(F)ccc1Oc1cc(C(F)(F)F)ccc1C(=O)Nc1cc[nH]c(=O)c1 | 20.6 min
CN1CCN(c2cc(C(F)(F)F)ccc2C(=O)Nc2cc[nH]c(=O)c2)CC1 | 1.3 min
COc1cc(NC(=O)c2ncc(C(F)(F)F)cc2Oc2ccc(F)cc2C)ccn1 | 12.3 min
COc1cccc(NC(=O)c2ccc(C(F)(F)F)cc2Oc2ccc(F)cc2C)c1 | 7.3 min
O=C(Nc1cc[nH]c(=O)c1)c1ccc(C(F)(F)F)cc1Oc1ccc(F)nc1 | 2.6 min
O=C(Nc1cc[nH]c(=O)c1)c1ccc(C(F)(F)F)cc1OC1CCC(F)(F)CC1 | 5.8 min
Cc1cc(F)ccc1Oc1cc(C(F)(F)F)ccc1C(=O)NCc1ccccc1 | > 60 min
COc1cc(NC(=O)c2ccc([N+](=O)[O-])cc2Oc2ccc(F)cc2C)ccn1 | 4.6 min
O=C(Nc1cc[nH]c(=O)c1)c1ccc(C(F)(F)F)cc1N1CCC(C(F)(F)F)CC1 | 11.7 min
Cc1cc(F)ccc1Oc1cc(C(F)(F)F)ccc1C(=O)Nc1cccc(O)c1 | 7.1 min
Cc1cc(F)ccc1Oc1cc([N+](=O)[O-])ccc1C(=O)Nc1cc[nH]c(=O)c1 | 4.5 min
O=C(Nc1cc[nH]c(=O)c1)c1ccc(C(F)(F)F)cc1Oc1ccccc1 | 8.6 min
O=C(Nc1cc[nH]c(=O)c1)c1ccc(C(F)(F)F)cc1Oc1ccncc1 | 1.7 min
Cc1cc(F)ccc1Oc1cc(C(F)(F)F)ccc1C(=O)NCc1cc[nH]c(=O)c1 | 9.1 min

molecular target: T1, Sodium channel protein type 10 subunit alpha; assay: Binding affinity to Nav1.8 (unknown origin) expressed in HEK293T cells assessed as retention time by cell membrane chromatography analysis; type: cell membranes; details: not given
Target sequence in this assay (Q9Y5Y9 whole entry, looked up): as the sequence (Q9Y5Y9 whole entry, looked up) above

SMILES | Retention time
Cc1cc(F)ccc1Oc1cc(C(F)(F)F)ccc1C(=O)Nc1ccncc1 | 30 min
Cc1cc(F)ccc1Oc1cc(C(F)(F)F)ccc1C(=O)Nc1ccc2cc[nH]c2c1 | > 60 min
O=C(Nc1cc[nH]c(=O)c1)c1ccc(C(F)(F)F)cc1OC1CC=CC1 | 10.1 min
COc1cc(NC(=O)c2ccc(C(F)(F)F)cc2Oc2ccc(F)cc2C)ccn1 | 6.1 min
Cc1cc(F)ccc1Oc1cc(C(F)(F)F)ccc1C(=O)Nc1ccccc1 | 5.8 min
O=C(Nc1cc[nH]c(=O)c1)c1ccc(C(F)(F)F)cc1Sc1ccc(F)cc1 | 9.2 min
Cc1cc(F)ccc1Oc1cc(C(F)(F)F)ccc1C(=O)Nc1cc[nH]c(=O)c1 | 11.8 min
CN1CCN(c2cc(C(F)(F)F)ccc2C(=O)Nc2cc[nH]c(=O)c2)CC1 | 53.8 min
COc1cc(NC(=O)c2ncc(C(F)(F)F)cc2Oc2ccc(F)cc2C)ccn1 | 22 min
COc1cccc(NC(=O)c2ccc(C(F)(F)F)cc2Oc2ccc(F)cc2C)c1 | 4.6 min
O=C(Nc1cc[nH]c(=O)c1)c1ccc(C(F)(F)F)cc1Oc1ccc(F)nc1 | 2.4 min
O=C(Nc1cc[nH]c(=O)c1)c1ccc(C(F)(F)F)cc1OC1CCC(F)(F)CC1 | 3.8 min
Cc1cc(F)ccc1Oc1cc(C(F)(F)F)ccc1C(=O)NCc1ccccc1 | 56.1 min
COc1cc(NC(=O)c2ccc([N+](=O)[O-])cc2Oc2ccc(F)cc2C)ccn1 | 4.6 min
O=C(Nc1cc[nH]c(=O)c1)c1ccc(C(F)(F)F)cc1N1CCC(C(F)(F)F)CC1 | 10.5 min
Cc1cc(F)ccc1Oc1cc(C(F)(F)F)ccc1C(=O)Nc1cccc(O)c1 | 36.5 min
Cc1cc(F)ccc1Oc1cc([N+](=O)[O-])ccc1C(=O)Nc1cc[nH]c(=O)c1 | 4.5 min
O=C(Nc1cc[nH]c(=O)c1)c1ccc(C(F)(F)F)cc1Oc1ccccc1 | 4.7 min
O=C(Nc1cc[nH]c(=O)c1)c1ccc(C(F)(F)F)cc1Oc1ccncc1 | 1.6 min
Cc1cc(F)ccc1Oc1cc(C(F)(F)F)ccc1C(=O)NCc1cc[nH]c(=O)c1 | 6 min

system: Mus musculus; assay: Analgesic activity in CFA-induced inflammatory pain mouse model assessed as paw withdrawal response to von frey stimuli at 100 microg/kg, ip; type: functional, organism-based; details: dose 100.0 µg/kg

SMILES | Activity
Cc1cc(F)ccc1Oc1cc(C(F)(F)F)ccc1C(=O)Nc1ccncc1 | Active
Cc1cc(F)ccc1Oc1cc(C(F)(F)F)ccc1C(=O)Nc1ccc2cc[nH]c2c1 | Active
O=C(Nc1cc[nH]c(=O)c1)c1ccc(C(F)(F)F)cc1Sc1ccc(F)cc1 | Active
CN1CCN(c2cc(C(F)(F)F)ccc2C(=O)Nc2cc[nH]c(=O)c2)CC1 | Active
COc1cc(NC(=O)c2ncc(C(F)(F)F)cc2Oc2ccc(F)cc2C)ccn1 | Active
O=C(Nc1cc[nH]c(=O)c1)c1ccc(C(F)(F)F)cc1N1CCC(C(F)(F)F)CC1 | Active

system: Mus musculus; assay: Analgesic activity in chronic constriction injury mouse model at 100 microg/kg, ip administered for 10 to 14 days; type: functional, organism-based; details: dose 100.0 µg/kg, time 10-14 day

SMILES | Activity
O=C(Nc1cc[nH]c(=O)c1)c1ccc(C(F)(F)F)cc1N1CCC(C(F)(F)F)CC1 | Active

molecular target: T1, Sodium channel protein type 10 subunit alpha; assay: Inhibition of Nav1.8 in HEK293 cells under half inaction state; type: cell-based; details: not given

SMILES | IC50
O=C(Nc1cc[nH]c(=O)c1)c1ccc(C(F)(F)F)cc1N1CCC(C(F)(F)F)CC1 | 0.472 µM

same assay, conditions: dose 0.1-10 µM

SMILES | inhibition
O=C(Nc1cc[nH]c(=O)c1)c1ccc(C(F)(F)F)cc1N1CCC(C(F)(F)F)CC1 | Dose-Dependent Effect

molecular target: T1, Sodium channel protein type 10 subunit alpha; assay: Inhibition of Nav1.8 in HEK293 cells under resting state; type: cell-based; details: not given

SMILES | IC50
O=C(Nc1cc[nH]c(=O)c1)c1ccc(C(F)(F)F)cc1N1CCC(C(F)(F)F)CC1 | 0.513 µM

same assay, conditions: dose 0.1-10 µM

SMILES | inhibition
O=C(Nc1cc[nH]c(=O)c1)c1ccc(C(F)(F)F)cc1N1CCC(C(F)(F)F)CC1 | Dose-Dependent Effect

system: Mus musculus; assay: Analgesic activity in CFA-induced inflammatory pain mouse model assessed as paw withdrawal response to von frey stimuli at 100 microg/kg, ip measured for 9 hrs; type: functional, organism-based; details: dose 100.0 µg/kg

SMILES | Activity
O=C(Nc1cc[nH]c(=O)c1)c1ccc(C(F)(F)F)cc1Sc1ccc(F)cc1 | Active
COc1cc(NC(=O)c2ncc(C(F)(F)F)cc2Oc2ccc(F)cc2C)ccn1 | Active
O=C(Nc1cc[nH]c(=O)c1)c1ccc(C(F)(F)F)cc1N1CCC(C(F)(F)F)CC1 | Active
